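The compound was tested at five concentrations on cells cultured in 96-well plates, with a 48-hour exposure period. TGI marks complete inhibition of growth.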
How the values were obtained:
Assay in all cases: NCI-60 cell line screen, 48 h
786-0 renal = system: 786-0 renal
A498 renal = system: A498 renal
A549 NSCLC = system: A549 NSCLC
ACHN renal = system: ACHN renal
CAKI-1 renal = system: CAKI-1 renal
CCRF-CEM leukemia = system: CCRF-CEM leukemia
COLO 205 colon = system: COLO 205 colon
DLD-1 colon = system: DLD-1 colon
DMS 114 small cell lung = system: DMS 114 small cell lung
DMS 273 small cell lung = system: DMS 273 small cell lung
HCC-2998 colon = system: HCC-2998 colon
HCT-116 colon = system: HCT-116 colon
HCT-15 colon = system: HCT-15 colon
HL-60(TB) leukemia = system: HL-60(TB) leukemia
HOP-18 NSCLC = system: HOP-18 NSCLC
HOP-62 NSCLC = system: HOP-62 NSCLC
HOP-92 NSCLC = system: HOP-92 NSCLC
HT29 colon = system: HT29 colon
IGROV1 ovarian = system: IGROV1 ovarian
K-562 leukemia = system: K-562 leukemia
KM12 colon = system: KM12 colon
KM20L2 colon = system: KM20L2 colon
LOX IMVI melanoma = system: LOX IMVI melanoma
LXFL 529 NSCLC = system: LXFL 529 NSCLC
M14 melanoma = system: M14 melanoma
M19-MEL melanoma = system: M19-MEL melanoma
MALME-3M melanoma = system: MALME-3M melanoma
MOLT-4 leukemia = system: MOLT-4 leukemia
NCI-H226 lung = system: NCI-H226 lung
NCI-H460 lung = system: NCI-H460 lung
NCI-H522 lung = system: NCI-H522 lung
OVCAR-4 ovarian = system: OVCAR-4 ovarian
OVCAR-5 ovarian = system: OVCAR-5 ovarian
OVCAR-8 ovarian = system: OVCAR-8 ovarian
RPMI-8226 leukemia = system: RPMI-8226 leukemia
RXF 393 renal = system: RXF 393 renal
SF-268 CNS = system: SF-268 CNS
SF-295 CNS = system: SF-295 CNS
SF-539 CNS = system: SF-539 CNS
SK-MEL-2 melanoma = system: SK-MEL-2 melanoma
SK-MEL-5 melanoma = system: SK-MEL-5 melanoma
SK-OV-3 ovarian = system: SK-OV-3 ovarian
SN12C renal = system: SN12C renal
SNB-19 CNS = system: SNB-19 CNS
SNB-75 CNS = system: SNB-75 CNS
SNB-78 CNS = system: SNB-78 CNS
SR leukemia = system: SR leukemia
SW-620 colon = system: SW-620 colon
TK-10 renal = system: TK-10 renal
U251 CNS = system: U251 CNS
UACC-257 melanoma = system: UACC-257 melanoma
UACC-62 melanoma = system: UACC-62 melanoma
UO-31 renal = system: UO-31 renal

Compound: O=C(c1c(O)cc(O)cc1O)C1Cc2ccccc21 (stereo not drawn)
- TGI (786-0 renal): > 100 µM
- TGI (A498 renal): > 100 µM
- TGI (A549 NSCLC): > 100 µM
- TGI (ACHN renal): > 100 µM
- TGI (CAKI-1 renal): > 100 µM
- TGI (CCRF-CEM leukemia): > 100 µM
- TGI (COLO 205 colon): > 100 µM
- TGI (DLD-1 colon): > 100 µM
- TGI (DMS 114 small cell lung): > 100 µM
- TGI (DMS 273 small cell lung): > 100 µM
- TGI (HCC-2998 colon): > 100 µM
- TGI (HCT-116 colon): > 100 µM
- TGI (HCT-15 colon): > 100 µM
- TGI (HL-60(TB) leukemia): > 100 µM
- TGI (HOP-18 NSCLC): > 100 µM
- TGI (HOP-62 NSCLC): > 100 µM
- TGI (HOP-92 NSCLC): > 100 µM
- TGI (HT29 colon): > 100 µM
- TGI (IGROV1 ovarian): > 100 µM
- TGI (K-562 leukemia): > 100 µM
- TGI (KM12 colon): > 100 µM
- TGI (KM20L2 colon): > 100 µM
- TGI (LOX IMVI melanoma): > 100 µM
- TGI (LXFL 529 NSCLC): > 100 µM
- TGI (M14 melanoma): > 100 µM
- TGI (M19-MEL melanoma): > 100 µM
- TGI (MALME-3M melanoma): > 100 µM
- TGI (MOLT-4 leukemia): > 100 µM
- TGI (NCI-H226 lung): > 100 µM
- TGI (NCI-H460 lung): > 100 µM
- TGI (NCI-H522 lung): > 100 µM
- TGI (OVCAR-4 ovarian): > 100 µM
- TGI (OVCAR-5 ovarian): > 100 µM
- TGI (OVCAR-8 ovarian): > 100 µM
- TGI (RPMI-8226 leukemia): > 100 µM
- TGI (RXF 393 renal): > 100 µM
- TGI (SF-268 CNS): > 100 µM
- TGI (SF-295 CNS): > 100 µM
- TGI (SF-539 CNS): > 100 µM
- TGI (SK-MEL-2 melanoma): > 100 µM
- TGI (SK-MEL-5 melanoma): > 100 µM
- TGI (SK-OV-3 ovarian): > 100 µM
- TGI (SN12C renal): > 100 µM
- TGI (SNB-19 CNS): > 100 µM
- TGI (SNB-75 CNS): 60.9 µM
- TGI (SNB-78 CNS): > 100 µM
- TGI (SR leukemia): > 100 µM
- TGI (SW-620 colon): > 100 µM
- TGI (TK-10 renal): > 100 µM
- TGI (U251 CNS): > 100 µM
- TGI (UACC-257 melanoma): > 100 µM
- TGI (UACC-62 melanoma): > 100 µM
- TGI (UO-31 renal): > 100 µM

— PubChem BioAssay (NCI)
